Reference: ChEMBL document CHEMBL1681651, “A broad spectrum anticancer nucleoside with selective toxicity against human colon cells in vitro” (2011)

Key:
Format in all cases: functional
[1] = tested on: MCF7; experiment: Growth inhibition of human MCF7 cells assessed as cell growth at 10 uM after 48 hrs by SRB assay; conditions: MCF7, 48 h, read-out: Activity
[2] = tested on: TK-10; experiment: Growth inhibition of human TK10 cells assessed as cell growth at 0.1 uM after 48 hrs by SRB assay; conditions: TK-10, 48 h, read-out: Activity
[3] = tested on: OVCAR-3; experiment: Growth inhibition of human OVCAR3 cells assessed as cell growth at 1 mM after 48 hrs by SRB assay; conditions: OVCAR-3, 48 h, read-out: Activity
[4] = tested on: A549; experiment: Growth inhibition of human A549 cells after 48 hrs by […] growth inhibition assay; conditions: A549, 48 h
[5] = tested on: OVCAR-8; experiment: Growth inhibition of human OVCAR8 cells assessed as cell growth at 100 uM after 48 hrs by SRB assay; conditions: OVCAR-8, 48 h, read-out: Activity
[6] = tested on: UO-31; experiment: Growth inhibition of human UO31 cells after 48 hrs by […] growth inhibition assay; conditions: UO-31, 48 h
[7] = tested on: A498; experiment: Growth inhibition of human A498 cells assessed as cell growth at 100 uM after 48 hrs by SRB assay; conditions: A498, 48 h, read-out: Activity
[8] = Growth inhibition of human […] cells assessed as cell growth at 0.1 uM after 48 hrs by SRB assay; conditions: read-out: Activity
[9] = tested on: HT-29; experiment: Growth inhibition of human HT-29 cells after 48 hrs by […] growth inhibition assay; conditions: HT-29, 48 h
[10] = tested on: SK-MEL-5; experiment: Growth inhibition of human SK-MEL-5 cells after 48 hrs by […] growth inhibition assay; conditions: SK-MEL-5, 48 h
[11] = tested on: DU-145; experiment: Growth inhibition of human DU145 cells assessed as cell growth at 1 uM after 48 hrs by SRB assay; conditions: DU-145, 48 h, read-out: Activity
[12] = tested on: UACC-257; experiment: Growth inhibition of human UACC257 cells assessed as cell growth at 1 mM after 48 hrs by SRB assay; conditions: UACC-257, 48 h, read-out: Activity
[13] = Growth inhibition of human […] cells assessed as cell growth at 100 uM after 48 hrs by SRB assay; conditions: read-out: Activity
[14] = tested on: 786-0; experiment: Growth inhibition of human 786-0 cells assessed as cell growth at 10 uM after 48 hrs by SRB assay; conditions: 786-0, 48 h, read-out: Activity
[15] = tested on: OVCAR-4; experiment: Growth inhibition of human OVCAR4 cells assessed as cell growth at 10 uM after 48 hrs by SRB assay; conditions: OVCAR-4, 48 h, read-out: Activity
[16] = tested on: UACC-257; experiment: Growth inhibition of human UACC257 cells assessed as cell growth at 0.1 uM after 48 hrs by SRB assay; conditions: UACC-257, 48 h, read-out: Activity
[17] = tested on: SF-295; experiment: Growth inhibition of human SF295 cells assessed as cell growth at 0.1 uM after 48 hrs by SRB assay; conditions: SF-295, 48 h, read-out: Activity
[18] = tested on: IGROV-1; experiment: Growth inhibition of human IGROV1 cells assessed as cell growth at 1 mM after 48 hrs by SRB assay; conditions: IGROV-1, 48 h, read-out: Activity
[19] = tested on: HOP-62; experiment: Growth inhibition of human HOP62 cells assessed as cell growth at 1 mM after 48 hrs by SRB assay; conditions: HOP-62, 48 h, read-out: Activity
[20] = tested on: HOP-62; experiment: Growth inhibition of human HOP62 cells assessed as cell growth at 100 uM after 48 hrs by SRB assay; conditions: HOP-62, 48 h, read-out: Activity
[21] = tested on: OVCAR-5; experiment: Growth inhibition of human OVCAR5 cells assessed as cell growth at 1 mM after 48 hrs by SRB assay; conditions: OVCAR-5, 48 h, read-out: Activity
[22] = tested on: NCI/ADR-RES; experiment: Growth inhibition of human NCI/ADR-RES cells after 48 hrs by SRB assay
[23] = tested on: U-251; experiment: Growth inhibition of human U251 cells assessed as cell growth at 1 mM after 48 hrs by SRB assay; conditions: U-251, 48 h, read-out: Activity
[24] = tested on: HOP-62; experiment: Growth inhibition of human HOP62 cells assessed as cell growth at 0.1 uM after 48 hrs by SRB assay; conditions: HOP-62, 48 h, read-out: Activity
[25] = tested on: A498; experiment: Growth inhibition of human A498 cells assessed as cell growth at 1 mM after 48 hrs by SRB assay; conditions: A498, 48 h, read-out: Activity
[26] = tested on: NCI-H226; experiment: Growth inhibition of human NCI-H226 cells after 48 hrs by […] growth inhibition assay; conditions: NCI-H226, 48 h
[27] = tested on: SNB-19; experiment: Growth inhibition of human SNB19 cells assessed as cell growth at 0.1 uM after 48 hrs by SRB assay; conditions: SNB-19, 48 h, read-out: Activity
[28] = tested on: NCI-H460; experiment: Growth inhibition of human NCI-H460 cells assessed as cell growth at 0.1 uM after 48 hrs by SRB assay; conditions: NCI-H460, 48 h, read-out: Activity
[29] = tested on: SK-MEL-2; experiment: Growth inhibition of human SK-MEL-2 cells after 48 hrs by […] growth inhibition assay; conditions: SK-MEL-2, 48 h
[30] = tested on: OVCAR-8; experiment: Growth inhibition of human OVCAR8 cells assessed as cell growth at 10 uM after 48 hrs by SRB assay; conditions: OVCAR-8, 48 h, read-out: Activity
[31] = tested on: OVCAR-8; experiment: Growth inhibition of human OVCAR8 cells assessed as cell growth at 1 mM after 48 hrs by SRB assay; conditions: OVCAR-8, 48 h, read-out: Activity
[32] = tested on: SNB-75; experiment: Growth inhibition of human SNB75 cells assessed as cell growth at 1 mM after 48 hrs by SRB assay; conditions: SNB-75, 48 h, read-out: Activity
[33] = read-out: LC50 (the source's name)
[34] = read-out: pLC50 (the source's name) (converted)

For `CNC(=O)NC[C@H]1O[C@@H](n2cnc3c(NC(=O)Nc4ccccc4)ncnc32)[C@H](O[Si](C)(C)C(C)(C)C)[C@@H]1O[Si](C)(C)C(C)(C)C`, the growth at 10 µM [1] was 83%, the growth at 0.1 µM [2] was 110% and the growth at 1000 µM [3] was -50%. The GI50 ([4]; read-out: GI50) was 2.9 µM, the CC50 [4, 33] was over 100 µM and the TGI ([4]; read-out: TGI) was 12.8 µM. The GI50 ([4]; read-out: pGI50 (converted)) was 2.88 µM, the CC50 [4, 34] was over 100 µM and the TGI ([4]; read-out: pTGI (converted)) was 12.9 µM. The growth at 100 µM [5] was 13%, the GI50 ([6]; read-out: GI50) was 2.5 µM and the CC50 [6, 33] was over 100 µM. The TGI ([6]; read-out: TGI) was 9.56 µM, the GI50 ([6]; read-out: pGI50 (converted)) was 2.51 µM and the CC50 [6, 34] was over 100 µM. The TGI ([6]; read-out: pTGI (converted)) was 9.55 µM, the growth at 100 µM [7] was -39% and the growth at 0.1 µM [8] was 102%. The GI50 ([9]; read-out: GI50) was 2.02 µM, the CC50 [9, 33] was 6.91 µM and the TGI ([9]; read-out: TGI) was 3.73 µM. It also gave a GI50 ([9]; read-out: pGI50 (converted)) of 2 µM, a CC50 [9, 34] of 6.92 µM and a TGI ([9]; read-out: pTGI (converted)) of 3.72 µM. It also gave a GI50 ([10]; read-out: GI50) of 1.98 µM, a CC50 [10, 33] of 13.6 µM and a TGI ([10]; read-out: TGI) of 4.75 µM. It also gave a GI50 ([10]; read-out: pGI50 (converted)) of 2 µM, a CC50 [10, 34] of 13.5 µM and a TGI ([10]; read-out: pTGI (converted)) of 4.79 µM. It also gave a growth at 1 µM [11] of 107%, a growth at 1000 µM [12] of -24% and a growth at 100 µM [13] of 5%. It also gave a growth at 10 µM [14] of 110%, a growth at 10 µM [15] of 100% and a growth at 0.1 µM [16] of 97%. The growth at 0.1 µM [17] was 103%, the growth at 1000 µM [18] was -39% and the growth at 1000 µM [19] was -86%. For the same molecule, the growth at 100 µM [20] was 26%, the growth at 1000 µM [21] was -43% and the GI50 ([22]; read-out: GI50) was 3.72 µM. The CC50 [22, 33] was over 100 µM, the TGI ([22]; read-out: TGI) was 20.7 µM and the GI50 ([22]; read-out: pGI50 (converted)) was 3.72 µM. The CC50 [22, 34] was over 100 µM, the TGI ([22]; read-out: pTGI (converted)) was 20.9 µM and the growth at 1000 µM [23] was -46%. It also gave a growth at 0.1 µM [24] of 102%, a growth at 1000 µM [25] of -76% and a GI50 ([26]; read-out: GI50) of 3.1 µM. It also gave a CC50 [26, 33] of over 100 µM, a TGI ([26]; read-out: TGI) of 8.63 µM and a GI50 ([26]; read-out: pGI50 (converted)) of 3.09 µM. The CC50 [26, 34] was over 100 µM, the TGI ([26]; read-out: pTGI (converted)) was 8.71 µM and the growth at 0.1 µM [27] was 97%. It also gave a growth at 0.1 µM [28] of 104%, a GI50 ([29]; read-out: GI50) of 2.45 µM and a CC50 [29, 33] of over 100 µM. For the same molecule, the TGI ([29]; read-out: TGI) was 55.4 µM, the GI50 ([29]; read-out: pGI50 (converted)) was 2.45 µM and the CC50 [29, 34] was 28.2 µM. For the same molecule, the TGI ([29]; read-out: pTGI (converted)) was 5.5 µM, the growth at 10 µM [30] was 106% and the growth at 1000 µM [31] was -9%. The growth at 1000 µM [32] was -12%.
With `CNC(=O)OC[C@H]1O[C@@H](n2cnc3c(NC(=O)Nc4ccccc4)ncnc32)[C@H](O[Si](C)(C)C(C)(C)C)[C@@H]1O[Si](C)(C)C(C)(C)C` the growth at 10 µM [1] was 87.8%, the growth at 10 µM [14] was 94.6% and the growth at 10 µM [15] was 85.8%. The growth at 10 µM [30] was 88.8%.
